# Measurements as given in ChEMBL document CHEMBL4823263, “Discovery of 2-(3-(3-Carbamoylpiperidin-1-yl)phenoxy)acetic Acid Derivatives as Novel Small-Molecule Inhibitors of the β-Catenin/B-Cell Lymphoma 9 Protein-Protein Interaction” (J Med Chem, 2021).
# How the values were obtained:
# [1] = target: T1, beta-catenin-B-cell lymphoma 9 protein complex (Homo sapiens, UniProt P35222); test: Inhibition of full length C-terminal 6-His-tagged beta-catenin (1 to 781 residues) (unknown origin) expressed in Escherichia coli BL21 (DE3)-N-terminal biotinylated human BCL9 (350 to 375 residues) protein-protein interaction incubated for 1 hr by Alphascreen assay
# T1 sequence (P35222 whole entry): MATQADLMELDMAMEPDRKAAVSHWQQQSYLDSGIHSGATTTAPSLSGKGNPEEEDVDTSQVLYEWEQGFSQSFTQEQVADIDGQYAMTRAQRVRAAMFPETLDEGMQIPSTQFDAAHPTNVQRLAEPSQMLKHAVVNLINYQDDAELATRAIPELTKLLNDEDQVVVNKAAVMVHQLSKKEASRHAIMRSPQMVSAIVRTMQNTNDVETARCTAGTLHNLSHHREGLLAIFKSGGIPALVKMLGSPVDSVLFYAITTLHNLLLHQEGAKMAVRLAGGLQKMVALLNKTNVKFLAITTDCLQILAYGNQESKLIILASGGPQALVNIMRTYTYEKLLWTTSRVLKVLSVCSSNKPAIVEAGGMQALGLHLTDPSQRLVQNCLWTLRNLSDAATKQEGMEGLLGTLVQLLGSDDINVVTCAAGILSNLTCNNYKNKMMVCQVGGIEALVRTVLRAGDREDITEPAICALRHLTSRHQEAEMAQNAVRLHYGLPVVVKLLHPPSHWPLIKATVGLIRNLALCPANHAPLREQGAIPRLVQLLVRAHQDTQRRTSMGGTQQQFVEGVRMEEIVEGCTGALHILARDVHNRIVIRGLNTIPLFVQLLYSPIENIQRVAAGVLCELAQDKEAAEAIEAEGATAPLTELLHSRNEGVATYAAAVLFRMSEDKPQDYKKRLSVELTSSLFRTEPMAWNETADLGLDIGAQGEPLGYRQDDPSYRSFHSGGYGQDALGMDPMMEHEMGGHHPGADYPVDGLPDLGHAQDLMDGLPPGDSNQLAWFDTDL
# T1 sequence (O00512 whole entry): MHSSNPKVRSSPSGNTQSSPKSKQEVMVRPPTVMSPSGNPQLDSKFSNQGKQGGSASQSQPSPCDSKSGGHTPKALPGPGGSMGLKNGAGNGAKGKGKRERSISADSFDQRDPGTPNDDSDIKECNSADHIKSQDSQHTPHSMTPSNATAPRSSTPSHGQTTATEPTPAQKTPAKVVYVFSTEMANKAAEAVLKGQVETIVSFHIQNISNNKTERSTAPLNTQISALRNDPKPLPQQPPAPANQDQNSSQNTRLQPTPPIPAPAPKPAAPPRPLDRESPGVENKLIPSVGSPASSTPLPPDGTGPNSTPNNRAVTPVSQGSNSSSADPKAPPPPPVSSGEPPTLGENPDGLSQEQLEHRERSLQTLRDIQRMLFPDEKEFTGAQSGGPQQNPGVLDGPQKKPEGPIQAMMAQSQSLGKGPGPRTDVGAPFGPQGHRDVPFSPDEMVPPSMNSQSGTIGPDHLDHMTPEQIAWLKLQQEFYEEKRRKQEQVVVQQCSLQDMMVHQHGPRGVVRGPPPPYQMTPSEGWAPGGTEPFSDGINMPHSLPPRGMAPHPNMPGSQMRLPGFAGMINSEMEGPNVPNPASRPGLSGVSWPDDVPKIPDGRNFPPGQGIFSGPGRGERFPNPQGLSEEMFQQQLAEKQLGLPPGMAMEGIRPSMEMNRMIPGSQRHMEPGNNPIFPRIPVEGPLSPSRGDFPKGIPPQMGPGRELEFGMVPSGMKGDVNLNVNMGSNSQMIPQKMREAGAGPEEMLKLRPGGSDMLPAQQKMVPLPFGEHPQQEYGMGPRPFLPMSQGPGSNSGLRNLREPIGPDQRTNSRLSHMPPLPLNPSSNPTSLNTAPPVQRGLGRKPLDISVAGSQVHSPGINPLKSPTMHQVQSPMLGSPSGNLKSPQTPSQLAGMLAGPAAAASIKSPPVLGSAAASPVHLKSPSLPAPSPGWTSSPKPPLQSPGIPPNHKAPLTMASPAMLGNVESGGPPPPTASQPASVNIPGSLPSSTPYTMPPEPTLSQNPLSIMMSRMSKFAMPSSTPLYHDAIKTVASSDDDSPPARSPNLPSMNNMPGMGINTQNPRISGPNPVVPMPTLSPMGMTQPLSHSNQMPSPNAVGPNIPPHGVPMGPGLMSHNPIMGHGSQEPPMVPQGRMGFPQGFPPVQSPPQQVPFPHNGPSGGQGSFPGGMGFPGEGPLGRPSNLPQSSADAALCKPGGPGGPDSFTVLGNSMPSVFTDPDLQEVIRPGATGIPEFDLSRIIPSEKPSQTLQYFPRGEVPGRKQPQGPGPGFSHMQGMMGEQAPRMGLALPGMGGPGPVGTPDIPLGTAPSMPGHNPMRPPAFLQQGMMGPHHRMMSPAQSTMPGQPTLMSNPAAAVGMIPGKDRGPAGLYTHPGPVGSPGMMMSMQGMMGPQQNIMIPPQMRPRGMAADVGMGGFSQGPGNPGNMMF
# [2] = test system: MDA-MB-468; test: Antiproliferative activity against human MDA-MB-468 cells incubated for 72 hrs by MTS assay; type: functional, cell-based; conditions: MDA-MB-468, 72 h
# [3] = test system: MDA-MB-231; test: Antiproliferative activity against human MDA-MB-231 cells incubated for 72 hrs by MTS assay; type: functional, cell-based; conditions: MDA-MB-231, 72 h
# [4] = test system: MCF-10A; test: Antiproliferative activity against human MCF10A cells incubated for 72 hrs by MTS assay; type: functional, cell-based
# [5] = test system: HCT-116; test: Antiproliferative activity against human HCT116 cells incubated for 72 hrs by MTS assay; type: functional, cell-based; conditions: HCT-116, 72 h
# [6] = test system: SW480; test: Antiproliferative activity against human SW480 cells incubated for 72 hrs by MTS assay; type: functional, cell-based; conditions: SW480, 72 h
# [7] = test system: SW480; test: (§1) Inhibition of Wnt/beta-catenin transactivation signalling in human SW480 cells harboring wild type tcf4 binding sites incubated for 24 hrs by TOPFlash luciferase assay; type: cell-based
# [8] = as §1; type: cell-based
# [9] = test system: SW480; test: Inhibition of Wnt/beta-catenin transactivation signalling in human SW480 cells harboring mutant tcf4 binding sites assessed as relative activity at 3.125 uM incubated for 24 hrs by FOPFlash luciferase assay relative to control; type: cell-based; parameters: scale not given: the % may be the effect or the level left
# [10] = test system: SW480; test: Inhibition of Wnt/beta-catenin transactivation signalling in human SW480 cells harboring mutant tcf4 binding sites assessed as relative activity at 6.25 uM incubated for 24 hrs by FOPFlash luciferase assay relative to control; type: cell-based; parameters: scale not given: the % may be the effect or the level left
# [11] = test system: SW480; test: Inhibition of Wnt/beta-catenin transactivation signalling in human SW480 cells harboring mutant tcf4 binding sites assessed as relative activity at 12.5 uM incubated for 24 hrs by FOPFlash luciferase assay relative to control; type: cell-based; parameters: scale not given: the % may be the effect or the level left
SMILES,IC50 [1] [µM],Ki [1] [µM],also measured
COc1cccc(S(=O)(=O)NC(=O)C(C)(C)Oc2cccc(N3CCC[C@@H](C(=O)N(Cc4ccc(-c5cccs5)cc4)C4CC4)C3)c2)c1,5.7,4.6,–
Cn1cc(-c2ccc(CN(C(=O)C3CCCN(c4cccc(OC(C)(C)C(=O)O)c4)C3)C3CC3)cc2)cn1 (stereo unspecified),> 100,> 90,–
CC(C)(Oc1cccc(N2CCCC(C(=O)N(Cc3ccc(-c4cccs4)cc3)C3CC3)C2)c1)C(=O)NS(=O)(=O)c1cccc(C#N)c1 (stereo unspecified),6.3,5.1,–
CCN(Cc1ccc(C(C)C)cc1)C(=O)C1CCCN(c2cccc(OC(C)(C)C(=O)O)c2)C1 (stereo unspecified),59,50,–
CC(C)(Oc1cccc(N2CCCC(C(=O)N(Cc3ccc(-c4ccn[nH]4)cc3)C3CC3)C2)c1)C(=O)O (stereo unspecified),72,61,–
CC(C)(Oc1cccc(N2CCCC(C(=O)N(Cc3ccc(-c4cccs4)cc3)C3CC3)C2)c1)C(=O)O (stereo unspecified),15,13,IC50 [2]: 95.9 µM; IC50 [3]: 103 µM; IC50 [4]: 98.5 µM; IC50 [5]: 112 µM; IC50 [6]: 137 µM
CC(C)(C)OC(=O)C(C)(C)Oc1cccc(N2CCCC(C(=O)N(Cc3ccc(-c4cccs4)cc3)C3CC3)C2)c1 (stereo unspecified),> 100,> 90,IC50 [2]: > 200 µM; IC50 [3]: > 200 µM; IC50 [4]: > 200 µM; IC50 [5]: > 200 µM; IC50 [6]: > 200 µM
CC(C)(Oc1cccc(N2CCCC(C(=O)N(Cc3ccc(-c4ccoc4)cc3)C3CC3)C2)c1)C(=O)O (stereo unspecified),> 100,> 90,–
COc1cccc(S(=O)(=O)NC(=O)C(C)(C)Oc2cccc(N3CCCC(C(=O)N(Cc4ccc(-c5cccs5)cc4)C4CC4)C3)c2)c1 (stereo unspecified),5.1,4.1,–
COC(=O)C(C)(C)Oc1cccc(N2CCCC(C(=O)N(Cc3ccc(-c4cccs4)cc3)C3CC3)C2)c1 (stereo unspecified),> 100,> 90,–
CC(C)S(=O)(=O)NC(=O)C(C)(C)Oc1cccc(N2CCCC(C(=O)N(Cc3ccc(-c4cccs4)cc3)C3CC3)C2)c1 (stereo unspecified),13,11,–
COc1ccc(S(=O)(=O)NC(=O)C(C)(C)Oc2cccc(N3CCCC(C(=O)N(Cc4ccc(-c5cccs5)cc4)C4CC4)C3)c2)cc1 (stereo unspecified),6.1,4.9,–
CC(C)(Oc1cccc(N2CCCC(C(=O)N(Cc3ccc(-c4cccs4)cc3)C3CC3)C2)c1)C(=O)NS(=O)(=O)c1ccc(C#N)cc1 (racemic),4.8,3.9,–
CC(C)(Oc1cccc(N2CCC[C@@H](C(=O)N(Cc3ccc(-c4cccs4)cc3)C3CC3)C2)c1)C(=O)NS(=O)(=O)c1ccc(C#N)cc1,4.8,3.9,–
CC(C)(Oc1cccc(N2CCCC(C(=O)N(Cc3ccc(-c4cccs4)cc3)C3CC3)C2)c1)C(=O)NS(=O)(=O)c1cccc(O)c1 (stereo unspecified),7.1,5.8,–
CC(C)c1ccc(CN(C(=O)C2CCCN(c3cccc(OC(C)(C)C(=O)O)c3)C2)C2CC2)cc1 (stereo unspecified),40,36,–
CC(C)(Oc1cccc(N2CCCC(C(=O)N(Cc3ccc(-c4cccs4)cc3)C3CC3)C2)c1)C(=O)NS(=O)(=O)C1CC1 (stereo unspecified),23,19,–
CC(C)(Oc1cccc(N2CCCC(C(=O)N(Cc3ccc(-c4cn[nH]c4)cc3)C3CC3)C2)c1)C(=O)O (stereo unspecified),> 100,> 90,–
CC(C)(Oc1cccc(N2CCCC(C(=O)N(Cc3ccc(-c4ccco4)cc3)C3CC3)C2)c1)C(=O)O (stereo unspecified),50,42,–

# Second part, led by results:
IC50 [1] [µM],Ki [1] [µM],SMILES,also measured
35,30,CC(C)(Oc1cccc(N2CCCC(C(=O)N(Cc3ccc(-c4ccsc4)cc3)C3CC3)C2)c1)C(=O)O (stereo unspecified),–
24,21,CC(C)(Oc1cccc(N2CCCC(C(=O)N(Cc3ccc(-c4cccs4)cc3)C3CC3)C2)c1)C(=O)NS(C)(=O)=O (stereo unspecified),–
92,82,CC(C)c1ccc(CCNC(=O)C2CCCN(c3cccc(OC(C)(C)C(=O)O)c3)C2)cc1 (stereo unspecified),–
52,46,CC(C)c1ccc(CN(C(=O)C2CCCN(c3cccc(OC(C)(C)C(=O)O)c3)C2)C(C)C)cc1 (stereo unspecified),–
2.9,2.3,COc1cccc(S(=O)(=O)NC(=O)C(C)(C)Oc2cccc(N3CCC[C@H](C(=O)N(Cc4ccc(-c5cccs5)cc4)C4CC4)C3)c2)c1,IC50 [2]: 15.4 µM; Activity [7]: Dose-Dependent Effect; IC50 [8]: 7.8 µM; Activity [9]: 98%; IC50 [3]: 19.8 µM; IC50 [4]: 30.4 µM; Activity [10]: 81%; IC50 [5]: 29.9 µM; Activity [11]: 54%; IC50 [6]: 28.2 µM
71,59,CC(C)c1ccc(CN(C)C(=O)C2CCCN(c3cccc(OC(C)(C)C(=O)O)c3)C2)cc1 (stereo unspecified),–
7.7,6.4,CC(C)(Oc1cccc(N2CCCC(C(=O)N(Cc3ccc(-c4cccs4)cc3)C3CC3)C2)c1)C(=O)NS(=O)(=O)c1ccccc1 (stereo unspecified),–
> 100,> 90,Cn1nccc1-c1ccc(CN(C(=O)C2CCCN(c3cccc(OC(C)(C)C(=O)O)c3)C2)C2CC2)cc1 (stereo unspecified),–
83,71,CC(C)c1ccc(CNC(=O)C2CCCN(c3cccc(OC(C)(C)C(=O)O)c3)C2)cc1 (stereo unspecified),–
